Converted amounts (≈) assume the structure as drawn. “And” between values parts separate entries of the source, which are not always exact repeats. Equal values may be shown once. Read-outs that look alike come from different tables or passages of the source.
Tests used:
[1] = tested on: nitric oxide (NO) production from RAW macrophages; experiment: Griess assay for NO production by LPS-stimulated RAW macrophages; format: cell-based, murine; conditions: for NO production (relative to control), mean ± SE: LPS 1 μg/mL, 24 hours, n = 8, % of control; for IC50: read-out: IC50, inhibition of NO production
Method: RAW 264.7 murine monocyte/macrophages (ATCC TIB-71) were maintained in Dulbecco's Modified Eagle Medium (D-MEM, Invitrogen Corp., Carlsbad, Calif.) supplemented with 10% fetal bovine serum (FBS, Invitrogen Corp., Carlsbad, Calif.) and 1% streptomycin and were kept in a humidified 37° C. incubator with 5% CO2. Cells were subcultured by scraping when plates reached 90% confluency with a 1:5 ratio.
Down-regulation of various pro-inflammatory genes including iNOS, IL1β, and TNF-α can reduce nitric oxide production by macrophages. In order to confirm that changes in pro-inflammatory gene expression were affecting cellular function, the Griess assay was performed to indirectly measure nitric oxide production by LPS-induced macrophages by measuring nitrite (Misko et al., 1993). For the assay, RAW cells were plated in a 24-well plate at a minimum density of 0.4×10^6 cells/well and grown for 24 hours. A stock solution of AL-1 was created by completely dissolving dry extract as in Example 1 in 95% ethanol. Cells were stimulated with 1 μg/mL LPS with simultaneous addition of AL-1 (10-100 μg/mL), aspirin (10 mM), or vehicle control (0.5% ethanol), maintaining a final concentration of 0.5% ethanol for every treatment. After 24 hours, conditioned media (50 μl) was removed and immediately mixed with 100 μl of Griess reagent (10% sulfanilamide, 1% naphthalene-ethylenediamine dihydrochloride in 5% H3PO4, all from Sigma, St. Louis, Mo.). After incubation for 15 minutes at room temperature, the samples were read at 550 nm using a microplate spectrophotometer (Molecular Devices, Sunnyvale, Calif.). Data for each treatment were normalized based on results from an MTS cell proliferation assay.
A CellTiter 96 assay kit (Promega Corp. Madison, Wis.) was used to determine the relative number of viable cells remaining after incubation with treatments. For the assay, old media containing treatments or controls was removed from the 96-well plates and replaced with 100 μL fresh media per well. Next, 20 μL MTS/PMS reagent ([3-(4,5-dimethylthiazol-2-yl)-5-(3-carboxymethoxyphenyl)-2-(4-sulfophenyl)-2H-tetrazolium plus phenazine methosulfate) was added to each well followed by a three hour incubation period at 37° C., 5% CO2. Plates were read using a microplate reader (Molecular Devices, Sunnyvale, Calif.) at 490 nm. A blank row corrected for background noise and data was expressed as a percent of the LPS control. Each treatment was tested on three different plates with 8 wells on each plate for a total of 24 wells.

COX-2 = target: T1, COX-2 (Ovis aries, UniProt P79208); experiment: Colorimetric COX inhibitor screening assay, COX-2; format: biochemical, ovine
T1 construct: purchased Cayman Chemical Company
T1 sequence (P79208 17-603): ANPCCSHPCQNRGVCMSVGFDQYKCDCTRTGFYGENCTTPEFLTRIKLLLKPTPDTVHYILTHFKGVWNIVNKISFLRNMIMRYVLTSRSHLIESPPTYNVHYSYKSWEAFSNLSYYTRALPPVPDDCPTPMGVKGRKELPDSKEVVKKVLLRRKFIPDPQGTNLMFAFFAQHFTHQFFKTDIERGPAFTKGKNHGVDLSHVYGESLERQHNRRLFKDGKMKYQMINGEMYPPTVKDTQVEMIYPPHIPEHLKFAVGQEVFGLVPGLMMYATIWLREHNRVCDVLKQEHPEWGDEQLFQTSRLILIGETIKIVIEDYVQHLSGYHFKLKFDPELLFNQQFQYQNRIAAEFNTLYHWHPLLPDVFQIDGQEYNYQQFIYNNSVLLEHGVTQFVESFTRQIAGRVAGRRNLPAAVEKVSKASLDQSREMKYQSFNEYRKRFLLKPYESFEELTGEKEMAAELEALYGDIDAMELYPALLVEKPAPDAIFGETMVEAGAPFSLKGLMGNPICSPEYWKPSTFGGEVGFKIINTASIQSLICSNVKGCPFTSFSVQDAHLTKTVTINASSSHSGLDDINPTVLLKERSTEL
Method: An ovine COX inhibitor screening assay (Cayman Chemical Company, Ann Arbor, Mich.) was used to measure inhibition of purified COX-1 and COX-2. This assay measures the peroxidase component of cyclooxygenases colorimetrically by monitoring the appearance of oxidized N,N,N′,N′-tetramethyl-p-phenylenediamine (TMPD) at 590 nm. Tablets of Vioxx (rofecoxib; Merck & Co., Inc., Whitehouse Station, N.J.) were ground and dissolved in methanol (1 mg/mL) to use as a positive control. AL-1, leukomisin, and austricin were also dissolved in methanol at 1 mg/mL. The assay was performed following manufacturer instructions. Vioxx, vehicle (100% initial activity), or treatments were added to a 96-well plate along with 180 μL assay mixture provided by the manufacturer containing 150 μL assay buffer, 10 μL heme, and 10 μL enzyme (COX-1 or COX-2). A background correction row received no enzyme and 10 μL additional assay buffer. After 5 min incubation at room temp, 20 μL of a colorimetric substrate solution containing TMPD and 20 μL arachadonic acid diluted in assay buffer were added to the plate. The plate was incubated for 5 min and the absorbance was read at 590 nm using a microplate reader (Molecular Devices, Sunnyvale, Calif.). To calculate percent inhibition, average absorbance was calculated for each sample (n=3). The background blank well absorbance was subtracted from each sample.
[(100% Initial activity-Blank)−(Treatment-Blank)/(100% Initial activity-Blank)]*100

[2] = read-out: percent inhibition of COX-2 enzyme activity, mean ± SE

SMILES | NO production (relative to control), mean ± SE ([1]; 20 μg/ml) [%] | NO production (relative to control), mean ± SE ([1]; 50 μg/ml) [%] | NO production (relative to control), mean ± SE ([1]; 100 μg/ml) [%] | IC50, inhibition of NO production ([1]; RAW macrophages elicited with LPS) [µg/mL] | IC50 ([1]; RAW macrophages elicited with LPS, molar value in brackets) [µM] | percent inhibition of COX-2 enzyme activity, mean ± SE (COX-2; 45 μg/ml) [%] | percent inhibition of COX-2 enzyme activity, mean ± SE (COX-2; 115 μg/ml) [%] | percent inhibition of COX-2 enzyme activity, mean ± SE (COX-2; 225 μg/ml) [%] | IC50, COX-2 inhibition (COX-2; purified ovine COX-2) [µg/mL] | IC50 (COX-2; purified ovine COX-2, read-out: IC50, COX-2 inhibition) [mM] | IC50 ([1]; Mus musculus, Macrophage) | IC50 (COX-2; IC50, COX-2 inhibition, purified ovine COX-2) [mM] | IC50 (COX-2; IC50, COX-2 inhibition, purified ovine COX-2, molar value in brackets) [mM] | inhibition at 45 µg/mL (COX-2; [2]) [%] | inhibition at 115 µg/mL (COX-2; [2]) [%] | inhibition at 225 µg/mL (COX-2; [2]) [%]
CC1=CC(=O)C2=C(C)CC[C@@H]3[C@H](OC(=O)[C@H]3C)[C@@H]12 [leukomisin] | 82 ± 4 | 72 ± 1 | 64 ± 2 | 160 | 650 | 34 ± 1 | 51 ± 3 | 65 ± 5 | 129 (≈ 524 µM) | 0.524 |  |  |  |  |  | 
CC1=CC(=O)C2=C(C)C[C@H](O)[C@@H]3[C@H](OC(=O)[C@H]3C)[C@@H]12 (single isomer, unassigned) [austricin] | 89 ± 1 | 89 ± 1 | 84 ± 2 |  |  |  |  |  |  |  | 440 µg/mL and 1.68 mM | 1.97 | 2 | 19 ± 1 | 29 ± 2 | 31 ± 1
